In data set [1] the target is 5-hydroxytryptamine receptor 2A (Homo sapiens, UniProt P28223). Put plainly: GPCRScan assay: inhibition of 5-HT2A. Also on record: radioligand conc. used [nm] 1.2 – 2.4, parental cells HEKT.
The target of data set [2] is T1, 5-hydroxytryptamine receptor 2B (Homo sapiens, UniProt P41595). Put plainly: GPCRScan assay: inhibition of 5-HT2B. Also on record: radioligand conc. used [nm] 1.0 – 2.0, parental cells stable HEK.
Data set [3] deals with 5-hydroxytryptamine receptor 2C (Homo sapiens, UniProt P28335). As to the kind of experiment: GPCRScan assay: inhibition of 5-HT2C. Further details: radioligand conc. used [nm] 1.0 – 2.5, parental cells HEK T.
5-hydroxytryptamine receptor 2C, sequence (P28335 whole entry): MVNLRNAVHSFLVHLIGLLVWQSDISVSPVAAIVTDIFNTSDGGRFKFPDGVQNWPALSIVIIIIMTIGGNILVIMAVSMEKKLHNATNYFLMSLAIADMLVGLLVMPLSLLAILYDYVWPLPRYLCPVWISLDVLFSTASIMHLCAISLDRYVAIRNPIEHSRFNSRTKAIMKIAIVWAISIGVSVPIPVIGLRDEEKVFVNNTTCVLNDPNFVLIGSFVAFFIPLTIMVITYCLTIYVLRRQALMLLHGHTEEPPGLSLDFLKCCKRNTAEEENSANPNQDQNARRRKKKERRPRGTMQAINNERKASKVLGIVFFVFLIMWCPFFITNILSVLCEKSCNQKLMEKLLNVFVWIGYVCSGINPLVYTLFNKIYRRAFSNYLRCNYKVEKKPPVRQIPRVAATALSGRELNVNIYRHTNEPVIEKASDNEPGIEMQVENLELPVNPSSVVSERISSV
Data set [4] can be described thus: GPCRScan assay: inhibition of GABA/PBR. Also on record: species or system Rattus norvegicus; radioligand conc. used [nm] 0.3 – 2.0, parental cells brain tissue.
Data set [5] deals with T2, Alpha-2A adrenergic receptor (Homo sapiens) (UniProt P08913).
T2 sequence (whole entry): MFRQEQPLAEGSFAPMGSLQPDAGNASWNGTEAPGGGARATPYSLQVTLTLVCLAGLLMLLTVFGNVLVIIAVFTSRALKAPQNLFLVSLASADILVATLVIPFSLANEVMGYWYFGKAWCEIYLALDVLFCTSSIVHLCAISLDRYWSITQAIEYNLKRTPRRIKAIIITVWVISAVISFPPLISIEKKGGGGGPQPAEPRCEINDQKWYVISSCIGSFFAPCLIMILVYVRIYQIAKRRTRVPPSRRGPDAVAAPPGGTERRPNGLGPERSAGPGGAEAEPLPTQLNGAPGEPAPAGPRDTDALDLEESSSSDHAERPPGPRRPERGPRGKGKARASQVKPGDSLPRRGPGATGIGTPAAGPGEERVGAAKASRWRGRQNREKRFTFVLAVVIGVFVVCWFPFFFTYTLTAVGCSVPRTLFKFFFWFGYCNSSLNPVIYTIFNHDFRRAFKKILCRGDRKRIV
As to the kind of experiment: alpha2A (h) CEREP ligand profiling. The following applies: Compound concentration 10.0 uM.

Data set [6] deals with Alpha-2B adrenergic receptor (Homo sapiens) (UniProt P18089). As to the kind of experiment: alpha2B (h) CEREP ligand profiling. The following applies: Compound concentration 10.0 uM.
Alpha-2B adrenergic receptor (Homo sapiens), sequence (P18089 whole entry): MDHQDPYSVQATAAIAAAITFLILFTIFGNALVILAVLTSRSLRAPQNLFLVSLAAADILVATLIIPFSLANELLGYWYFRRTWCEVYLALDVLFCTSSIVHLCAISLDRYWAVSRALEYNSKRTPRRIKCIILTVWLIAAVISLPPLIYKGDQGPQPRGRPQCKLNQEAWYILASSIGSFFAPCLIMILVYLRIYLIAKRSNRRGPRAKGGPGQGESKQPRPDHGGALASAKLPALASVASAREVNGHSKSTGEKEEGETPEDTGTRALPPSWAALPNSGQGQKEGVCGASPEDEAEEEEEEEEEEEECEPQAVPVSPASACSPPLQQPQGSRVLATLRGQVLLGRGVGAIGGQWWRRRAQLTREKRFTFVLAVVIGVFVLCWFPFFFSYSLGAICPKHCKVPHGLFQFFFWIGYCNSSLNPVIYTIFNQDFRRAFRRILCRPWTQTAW
In data set [7] the target is Type-1 angiotensin II receptor (Homo sapiens) (UniProt P30556). As to the kind of experiment: AT1 (h) CEREP ligand profiling. The following applies: Compound concentration 10.0 uM.
Type-1 angiotensin II receptor (Homo sapiens), sequence (P30556 whole entry): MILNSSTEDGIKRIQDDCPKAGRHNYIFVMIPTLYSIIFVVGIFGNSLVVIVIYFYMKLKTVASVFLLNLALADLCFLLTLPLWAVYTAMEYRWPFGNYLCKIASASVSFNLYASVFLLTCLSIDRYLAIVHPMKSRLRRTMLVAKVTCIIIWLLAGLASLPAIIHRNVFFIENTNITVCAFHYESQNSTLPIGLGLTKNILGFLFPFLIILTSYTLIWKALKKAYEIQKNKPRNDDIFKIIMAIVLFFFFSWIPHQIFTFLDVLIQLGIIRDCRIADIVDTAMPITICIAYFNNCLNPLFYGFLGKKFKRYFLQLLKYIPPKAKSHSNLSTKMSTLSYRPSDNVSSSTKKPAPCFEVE
The target in data set [8] is GABA-A receptor; anion channel (Homo sapiens) (UniProt P14867+P47870+P18507+P28472+P48169+Q99928+Q9UN88+P34903+O00591+O14764+Q8N1C3+P18505+P78334+P47869+P31644+Q16445). Put plainly: BZD (central) CEREP ligand profiling. Format: protein-complex assay. The settings on record: Compound concentration 10.0 uM.
In data set [9] the target is D(2) dopamine receptor (Homo sapiens) (UniProt P14416). As to the kind of experiment: D2S (h) CEREP ligand profiling. The settings on record: Compound concentration 10.0 uM.
D(2) dopamine receptor (Homo sapiens), sequence (P14416 whole entry): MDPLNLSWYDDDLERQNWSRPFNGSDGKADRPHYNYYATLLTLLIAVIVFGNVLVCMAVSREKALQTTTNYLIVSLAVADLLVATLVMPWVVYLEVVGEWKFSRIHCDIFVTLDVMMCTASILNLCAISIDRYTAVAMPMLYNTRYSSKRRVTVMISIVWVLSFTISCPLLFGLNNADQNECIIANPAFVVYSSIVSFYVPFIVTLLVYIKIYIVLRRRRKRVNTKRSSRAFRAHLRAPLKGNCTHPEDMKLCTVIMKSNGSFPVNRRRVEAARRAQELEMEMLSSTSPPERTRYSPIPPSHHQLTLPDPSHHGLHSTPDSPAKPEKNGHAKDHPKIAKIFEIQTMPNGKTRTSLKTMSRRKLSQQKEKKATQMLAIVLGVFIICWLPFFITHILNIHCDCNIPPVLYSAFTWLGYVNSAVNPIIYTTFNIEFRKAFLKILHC
The target of data set [10] is Glutamate [NMDA] receptor (Homo sapiens) (UniProt Q05586+Q12879+Q13224+O15399+O60391+Q14957+Q8TCU5). Put plainly: NMDA CEREP ligand profiling. The following applies: Compound concentration 10.0 uM. Format: protein-complex assay.
The target in data set [11] is Histamine H3 receptor (Homo sapiens) (UniProt Q9Y5N1). As to the kind of experiment: H3 (h) CEREP ligand profiling. The following applies: Compound concentration 10.0 uM.
Histamine H3 receptor (Homo sapiens), sequence (Q9Y5N1 whole entry): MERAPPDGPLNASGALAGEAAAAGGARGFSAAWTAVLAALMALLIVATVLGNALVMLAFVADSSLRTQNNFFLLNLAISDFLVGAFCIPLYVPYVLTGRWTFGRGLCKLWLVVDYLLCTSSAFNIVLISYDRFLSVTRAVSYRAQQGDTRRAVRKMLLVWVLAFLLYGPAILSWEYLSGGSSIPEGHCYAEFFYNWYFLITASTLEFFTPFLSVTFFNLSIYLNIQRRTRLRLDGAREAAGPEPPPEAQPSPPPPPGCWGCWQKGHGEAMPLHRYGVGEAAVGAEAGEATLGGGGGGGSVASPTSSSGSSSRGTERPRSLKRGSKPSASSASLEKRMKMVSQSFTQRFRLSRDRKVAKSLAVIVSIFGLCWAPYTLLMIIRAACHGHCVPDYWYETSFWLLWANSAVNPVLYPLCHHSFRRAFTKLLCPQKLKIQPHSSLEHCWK
In data set [12] the target is Muscarinic acetylcholine receptor M3 (Homo sapiens) (UniProt P20309). Put plainly: M3 (h) CEREP ligand profiling. The settings on record: Compound concentration 10.0 uM.
The target in data set [13] is Mu-type opioid receptor (Homo sapiens) (UniProt P35372). As to the kind of experiment: mu (h) (MOP) (agonist site) CEREP ligand profiling. The following applies: Compound concentration 10.0 uM.
Data set [14] addresses Kappa-type opioid receptor (Homo sapiens) (UniProt P41145). As to the kind of experiment: kappa (KOP) CEREP ligand profiling. The settings on record: Compound concentration 10.0 uM.
The target of data set [15] is 5-hydroxytryptamine receptor 1A (Homo sapiens) (UniProt P08908). As to the kind of experiment: 5-HT1A (h) CEREP ligand profiling. The settings on record: Compound concentration 10.0 uM.
5-hydroxytryptamine receptor 1A (Homo sapiens), sequence (P08908 whole entry): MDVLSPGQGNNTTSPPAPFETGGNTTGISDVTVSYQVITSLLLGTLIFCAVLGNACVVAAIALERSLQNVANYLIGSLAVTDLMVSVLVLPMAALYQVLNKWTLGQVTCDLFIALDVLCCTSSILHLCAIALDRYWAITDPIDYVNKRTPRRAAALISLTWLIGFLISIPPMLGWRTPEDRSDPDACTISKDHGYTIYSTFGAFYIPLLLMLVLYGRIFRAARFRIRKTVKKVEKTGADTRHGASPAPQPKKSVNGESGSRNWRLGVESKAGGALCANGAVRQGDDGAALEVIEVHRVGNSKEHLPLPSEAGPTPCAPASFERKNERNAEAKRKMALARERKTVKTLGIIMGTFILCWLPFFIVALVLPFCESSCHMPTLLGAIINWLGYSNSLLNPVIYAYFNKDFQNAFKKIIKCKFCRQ
For data set [16], the target named is T1, 5-hydroxytryptamine receptor 2B. Put plainly: 5-HT2B (h) (agonist site) CEREP ligand profiling. The following applies: Compound concentration 10.0 uM.
In data set [17] the target is 5-hydroxytryptamine receptor 7 (Homo sapiens) (UniProt P34969). As to the kind of experiment: 5-HT7 (h) CEREP ligand profiling. The settings on record: Compound concentration 10.0 uM.
Data set [18] has as its target Ca2+ channel (L, verapamil site) (phenylalkylamines); voltage-gated L-type calcium channel (Homo sapiens, UniProt O60840+Q01668+Q13698+Q13936). Put plainly: Ca2+ channel (L, verapamil site) (phenylalkylamines) CEREP ligand profiling. Format: protein assay. The settings on record: compound concentration 10 uM.
Data set [19] deals with Sodium-dependent serotonin transporter (Homo sapiens) (UniProt P31645). As to the kind of experiment: 5-HT transporter (h) CEREP ligand profiling. The settings on record: Compound concentration 10.0 uM.
Sodium-dependent serotonin transporter (Homo sapiens), sequence (P31645 whole entry, looked up): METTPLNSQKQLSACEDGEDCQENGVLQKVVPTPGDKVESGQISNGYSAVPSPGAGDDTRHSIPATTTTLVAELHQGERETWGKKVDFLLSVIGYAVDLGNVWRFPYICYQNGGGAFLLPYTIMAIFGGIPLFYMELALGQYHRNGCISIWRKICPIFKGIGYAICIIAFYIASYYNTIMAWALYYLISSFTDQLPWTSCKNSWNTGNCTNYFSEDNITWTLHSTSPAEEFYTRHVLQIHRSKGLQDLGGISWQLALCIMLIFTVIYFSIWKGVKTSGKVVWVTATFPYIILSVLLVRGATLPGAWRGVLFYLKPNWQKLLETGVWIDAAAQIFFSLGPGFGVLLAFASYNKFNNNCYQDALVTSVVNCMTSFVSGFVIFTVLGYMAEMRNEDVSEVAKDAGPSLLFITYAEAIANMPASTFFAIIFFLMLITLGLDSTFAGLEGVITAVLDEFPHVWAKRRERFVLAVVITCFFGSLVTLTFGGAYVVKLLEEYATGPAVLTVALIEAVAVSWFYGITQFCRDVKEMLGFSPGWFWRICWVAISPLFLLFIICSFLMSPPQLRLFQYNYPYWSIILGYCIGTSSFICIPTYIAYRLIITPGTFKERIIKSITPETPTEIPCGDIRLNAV
For data set [20], the target named is High affinity choline transporter 1 (Homo sapiens) (UniProt Q9GZV3). As to the kind of experiment: Choline transporter (h) (CHT1) CEREP ligand profiling. The settings on record: Compound concentration 10.0 uM.
Data set [21] concerns the target Phosphodiesterase 4 (Homo sapiens) (UniProt P27815+Q08499+Q07343+Q08493). As to the kind of experiment: PDE 4 (h) CEREP ligand profiling. The settings on record: Compound concentration 10.0 uM. Format: protein assay.
The target in data set [22] is Alpha-2B adrenergic receptor (Homo sapiens) (UniProt P18089). The following applies: Compound concentration 10.0 uM.
The target of data set [23] is Beta-3 adrenergic receptor (Homo sapiens) (UniProt P13945). The following applies: Compound concentration 10.0 uM.
Beta-3 adrenergic receptor (Homo sapiens), sequence (P13945 whole entry, looked up): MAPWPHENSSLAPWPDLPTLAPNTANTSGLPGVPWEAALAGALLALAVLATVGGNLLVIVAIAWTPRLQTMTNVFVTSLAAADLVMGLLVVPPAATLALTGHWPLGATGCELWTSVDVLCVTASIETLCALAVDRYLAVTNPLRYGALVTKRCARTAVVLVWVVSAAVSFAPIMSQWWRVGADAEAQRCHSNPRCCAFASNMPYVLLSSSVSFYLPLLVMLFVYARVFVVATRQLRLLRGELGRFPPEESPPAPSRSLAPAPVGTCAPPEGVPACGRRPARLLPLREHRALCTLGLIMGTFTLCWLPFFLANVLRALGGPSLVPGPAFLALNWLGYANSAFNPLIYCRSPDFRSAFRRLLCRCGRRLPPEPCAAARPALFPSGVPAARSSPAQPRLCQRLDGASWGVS

T1 sequence (P41595 whole entry): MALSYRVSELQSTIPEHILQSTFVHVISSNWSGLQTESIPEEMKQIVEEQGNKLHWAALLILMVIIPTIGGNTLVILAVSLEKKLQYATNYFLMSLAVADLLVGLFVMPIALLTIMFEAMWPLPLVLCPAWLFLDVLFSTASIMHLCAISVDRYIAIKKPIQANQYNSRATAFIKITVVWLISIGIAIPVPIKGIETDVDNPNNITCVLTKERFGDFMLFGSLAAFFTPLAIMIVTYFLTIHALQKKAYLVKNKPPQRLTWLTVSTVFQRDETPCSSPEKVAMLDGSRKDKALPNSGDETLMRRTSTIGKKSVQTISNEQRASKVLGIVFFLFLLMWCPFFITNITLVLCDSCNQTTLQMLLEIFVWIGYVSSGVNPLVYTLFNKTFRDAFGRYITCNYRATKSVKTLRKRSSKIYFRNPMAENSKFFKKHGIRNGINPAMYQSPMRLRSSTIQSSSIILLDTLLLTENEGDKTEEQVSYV
Kappa-type opioid receptor (Homo sapiens), sequence (P41145 whole entry): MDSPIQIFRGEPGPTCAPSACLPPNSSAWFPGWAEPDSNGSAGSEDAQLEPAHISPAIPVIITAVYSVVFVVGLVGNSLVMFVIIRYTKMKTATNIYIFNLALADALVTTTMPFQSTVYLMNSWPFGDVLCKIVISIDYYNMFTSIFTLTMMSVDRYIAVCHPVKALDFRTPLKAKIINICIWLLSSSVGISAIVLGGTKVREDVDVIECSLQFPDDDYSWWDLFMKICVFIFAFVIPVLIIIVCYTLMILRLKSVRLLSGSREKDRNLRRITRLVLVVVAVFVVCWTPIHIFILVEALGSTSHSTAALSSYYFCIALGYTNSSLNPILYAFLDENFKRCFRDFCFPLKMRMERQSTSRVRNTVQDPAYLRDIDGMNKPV
5-hydroxytryptamine receptor 2A, sequence (P28223 whole entry): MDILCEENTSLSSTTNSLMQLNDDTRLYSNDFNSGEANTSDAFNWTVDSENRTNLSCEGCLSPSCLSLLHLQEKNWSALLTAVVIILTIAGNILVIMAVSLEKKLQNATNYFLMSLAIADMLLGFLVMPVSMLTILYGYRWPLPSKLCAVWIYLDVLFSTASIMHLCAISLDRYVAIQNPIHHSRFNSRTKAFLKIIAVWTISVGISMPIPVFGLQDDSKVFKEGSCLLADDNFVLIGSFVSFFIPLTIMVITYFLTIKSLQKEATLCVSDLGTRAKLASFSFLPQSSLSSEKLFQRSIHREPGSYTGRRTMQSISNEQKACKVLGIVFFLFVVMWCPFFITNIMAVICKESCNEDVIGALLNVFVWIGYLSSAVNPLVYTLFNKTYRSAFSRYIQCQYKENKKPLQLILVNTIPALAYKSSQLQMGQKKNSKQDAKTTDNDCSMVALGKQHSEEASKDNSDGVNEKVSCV

With `O=C(Nc1cccnn1)N1CCC(=Cc2cccc(Oc3ccc(C(F)(F)F)cn3)c2)CC1`, the Ki was 249 nM in data set [1], 1340 nM in [2], 1660 nM in data set [3] and 1140 nM in data set [4]. Also, the negative logarithm of the Ki (pKi) in data set [4] was 5.94. For the same compound, the inhibition in [5] was -4%; in [6], 4%; in data set [7], -10%; in [8] it was 15%; in data set [9] it was -9%; in [10], -3%. The inhibition in data set [11] was 10%; in data set [12], 11%; in [13], 3%; in data set [14], 0%; in data set [15], 6%; in data set [16], 35%. For the same compound, the inhibition in data set [17] is 7%; in data set [19], 11%; in data set [20] it was 18%; in data set [21], 18%; in [22] it was 40%; in data set [23], 0.69%. In data set [18], the inhibition at 10 µM is recorded as -5% (not active).
